According to patent US9315503B2, “Kinase inhibitors” (CHIESI FARMACEUTICI S.p.A., priority 2011, dated 2016):
Counter-ions that a name gives are not always drawn.

Target: T1, p38alpha (Homo sapiens, UniProt Q16539)
T1 construct: purchased Invitrogen PV3304
Assay: P38Alpha enzyme inhibition assay (Alphascreen kinase activity assay)
Format: biochemical
Conditions: 100 pM p38alpha, 250 μM ATP, 2 hours pre-incubation at 25° C., read-out: p38α inhibition (IC50 values)
Description: P38Alpha Enzyme Inhibition Assay.
The inhibitory activity of compounds was determined using an Alphascreen® (Perkin Elmer) based kinase activity assay. Kinase reactions consisted of 25 mM HEPES pH 7.5, 10 mM MgCl2, 100 μM Na3VO4, 2 mM DTT, 0.05 mg/ml Tween 20, 100 pM p38alpha (Invitrogen, PV3304), 1% DMSO and 0.3 μg/ml ATF-2 fusion protein (New England Biolabs, 9224). Compounds were incubated under these conditions for 2 hours, at 25° C., prior to the initiation of the kinase activity by the addition of the 250 μM ATP. Reaction volumes were 20 uL. After 1 hr at 25° C. reactions were stopped by the adding 10 uL of 25 mM HEPES pH 7.5 containing 62.5 mM EDTA, 0.05% Triton X-100, 10% BSA and 0.83 ng/uL anti-phospho-ATF2 antibody (Abeam, ab28812). Detection was performed by measuring luminescence following the addition of Alphascreen Donor beads (Perkin Elmer 6765300) and Protein A Alphascreen Acceptor beads (Perkin Elmer 6760137), both at a final concentration of 20 ug/ml. IC50 values were determined from concentration-response curves.

T1 sequence (Q16539 whole entry): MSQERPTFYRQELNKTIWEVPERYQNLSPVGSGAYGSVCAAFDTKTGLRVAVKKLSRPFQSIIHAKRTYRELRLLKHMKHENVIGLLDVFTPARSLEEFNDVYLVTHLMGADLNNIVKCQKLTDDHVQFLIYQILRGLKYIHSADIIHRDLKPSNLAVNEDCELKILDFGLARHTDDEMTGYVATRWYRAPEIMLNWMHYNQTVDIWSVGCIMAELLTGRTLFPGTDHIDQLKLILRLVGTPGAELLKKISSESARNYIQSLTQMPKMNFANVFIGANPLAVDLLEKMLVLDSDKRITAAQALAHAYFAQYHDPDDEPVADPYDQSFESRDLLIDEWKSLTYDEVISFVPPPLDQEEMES

SMILES | IC50 [nM]
C[C@H]1CCCCN1c1nnc2ccc(O[C@@H]3CC[C@H](NC(=O)Nc4cc(C(C)(C)C)nn4-c4ccc(CN5CCCC5)cc4)c4ccccc43)cn12 [Example 181, 1-[5-tert-Butyl-2-(4-pyrrolidin-1-ylmethyl-phenyl)-2H-pyrazol-3-yl]-3-{(1S,4R)-4-[3-((S)-2-methyl-piperidin-1-yl)-[1,2,4]triazolo[4,3-a]pyridin-6-yloxy]-1,2,3,4-tetrahydro-naphthalen-1-yl}-urea formate salt] | < 10
C[C@@H]1CCC[C@H](C)N1c1nnc2ccc(O[C@@H]3CC[C@H](NC(=O)Nc4cc(C(C)(C)C)nn4-c4cccc(CN5CCCC5)c4)c4ccccc43)cn12 [Example 144, 1-[5-tert-Butyl-2-(3-pyrrolidin-1-ylmethyl-phenyl)-2H-pyrazol-3-yl]-3-{(1S,4R)-4-[3-((2S,6R)-2,6-dimethyl-piperidin-1-yl)-[1,2,4]triazolo[4,3-a]pyridin-6-yloxy]-1,2,3,4-tetrahydro-naphthalen-1-yl}-urea formate salt] | < 10
COCCN(C)Cc1ccc(-n2nc(C(C)(C)C)cc2NC(=O)N[C@H]2CC[C@@H](Oc3ccc4nnc(N5CCCC[C@@H]5C)n4c3)c3ccccc32)cc1 [Example 185, 1-[5-tert-Butyl-2-(4-{[(2-methoxy-ethyl)-methyl-amino]-methyl}-phenyl)-2H-pyrazol-3-yl]-3-{(1S,4R)-4-[3-((S)-2-methyl-piperidin-1-yl)-[1,2,4]triazolo[4,3-a]pyridin-6-yloxy]-1,2,3,4-tetrahydro-naphthalen-1-yl}-urea formate salt] | < 10
CCN(C)Cc1ccc(-n2nc(C(C)(C)C)cc2NC(=O)N[C@H]2CC[C@@H](Oc3ccc4nnc(N5CCCC[C@@H]5C)n4c3)c3ccccc32)cc1 [Example 184, 1-(5-tert-Butyl-2-{4-[(ethyl-methyl-amino)-methyl]-phenyl}-2H-pyrazol-3-yl)-3-{(1S,4R)-4-[3-((S)-2-methyl-piperidin-1-yl)-[1,2,4]triazolo[4,3-a]pyridin-6-yloxy]-1,2,3,4-tetrahydro-naphthalen-1-yl}-urea formate salt] | < 10
C[C@H]1CCCCN1c1nnc2ccc(O[C@@H]3CC[C@H](NC(=O)Nc4cc(C(C)(C)C)nn4-c4cccc(OCCN5CCCN(C)CC5)c4)c4ccccc43)cn12 [Example 160, 1-(5-tert-Butyl-2-{3-[2-(4-methyl-[1,4]-diazepan-1-yl)-ethoxy]-phenyl}-2H-pyrazol-3-yl)-3-{(1S,4R)-4-[3-((S)-2-methyl-piperidin-1-yl)-[1,2,4]triazolo[4,3-a]pyridin-6-yloxy]-1,2,3,4-tetrahydro-naphthalen-1-yl}-urea formate salt] | < 10
C[C@H]1CCCCN1c1nnc2ccc(O[C@@H]3CC[C@H](NC(=O)Nc4cc(C(C)(C)C)nn4-c4cccc(CCN5CCCOCC5)c4)c4ccccc43)cn12 [Example 137, 1-{5-tert-Butyl-2-[3-(2-[1,4]oxazepan-4-yl-ethyl)-phenyl]-2H-pyrazol-3-yl}-3-{(1S,4R)-4-[3-((S)-2-methyl-piperidin-1-yl)-[1,2,4]triazolo[4,3-a]pyridin-6-yloxy]-1,2,3,4-tetrahydro-naphthalen-1-yl}-urea formate salt] | < 10
CCN(C)CCc1cccc(-n2nc(C(C)(C)C)cc2NC(=O)N[C@H]2CC[C@@H](Oc3ccc4nnc(N5CCCC[C@@H]5C)n4c3)c3ccccc32)c1 [Example 133, 1-(5-tert-Butyl-2-{3-[2-(ethyl-methyl-amino)-ethyl]-phenyl}-2H-pyrazol-3-yl)-3-{(1S,4R)-4-[3-((S)-2-methyl-piperidin-1-yl)-[1,2,4]triazolo[4,3-a]pyridin-6-yloxy]-1,2,3,4-tetrahydro-naphthalen-1-yl}-urea formate salt] | < 10
CCN(C)CCOc1cccc(-n2nc(C(C)(C)C)cc2NC(=O)N[C@H]2CC[C@@H](Oc3ccc4nnc(N5CCCC[C@@H]5C)n4c3)c3ccccc32)c1 [Example 163, 1-(5-tert-Butyl-2-{3-[2-(ethyl-methyl-amino)-ethoxy]-phenyl}-2H-pyrazol-3-yl)-3-{(1S,4R)-4-[3-((S)-2-methyl-piperidin-1-yl)-[1,2,4]triazolo[4,3-a]pyridin-6-yloxy]-1,2,3,4-tetrahydro-naphthalen-1-yl}-urea formate salt] | < 10
Cc1ccc(-c2nc(C(C)(C)C)[nH]c2NC(=O)N[C@H]2CC[C@@H](Oc3ccc4nnc(N5CCCCC5)n4c3)c3ccccc32)cc1 [Example 51, 1-(2-tert-Butyl-5-p-tolyl-3H-imidazol-4-yl)-3-[(1S,4R)-4-(3-piperidin-1-yl-[1,2,4]triazolo[4,3-a]pyridin-6-yloxy)-1,2,3,4-tetrahydro-naphthalen-1-yl]-urea] | < 10
C[C@H]1COCCN1c1nnc2ccc(O[C@@H]3CC[C@H](NC(=O)Nc4cc(C(C)(C)C)nn4CCO)c4ccccc43)cn12 [Example 139, 1-[5-tert-Butyl-2-(2-hydroxy-ethyl)-2H-pyrazol-3-yl]-3-{(1S,4R)-4-[3-((S)-3-methyl-morpholin-4-yl)-[1,2,4]triazolo[4,3-a]pyridin-6-yloxy]-1,2,3,4-tetrahydro-naphthalen-1-yl}-urea] | < 10

Other lines, results leading:

IC50 [nM] | SMILES
< 10 | COC1CCN(CCOc2cccc(-n3nc(C(C)(C)C)cc3NC(=O)N[C@H]3CC[C@@H](Oc4ccc5nnc(N6CCCC[C@@H]6C)n5c4)c4ccccc43)c2)CC1 [Example 165, 1-(5-tert-Butyl-2-{3-[2-(4-methoxy-piperidin-1-yl-ethoxy]-phenyl}-2H-pyrazol-3-yl)-3-{(1S,4R)-4-[3-((S)-2-methyl-piperidin-1-yl)-[1,2,4]triazolo[4,3-a]pyridin-6-yloxy]-1,2,3,4-tetrahydro-naphthalen-1-yl}-urea formate salt]
< 10 | C[C@H]1CCCCN1c1nnc2ccc(O[C@@H]3CC[C@H](NC(=O)Nc4cc(C(C)(C)C)nn4-c4cccc(OCCN5CCCCC5)c4)c4ccccc43)cn12 [Example 157, 1-{5-tert-Butyl-2-[3-(2-piperidin-1-yl-ethoxy)-phenyl]-2H-pyrazol-3-yl}-3-{(1S,4R)-4-[3-((S)-2-methyl-piperidin-1-yl)-[1,2,4]triazolo[4,3-a]pyridin-6-yloxy]-1,2,3,4-tetrahydro-naphthalen-1-yl}-urea formate salt]
< 10 | CN(C)CCOc1cccc(-n2nc(C(C)(C)C)cc2NC(=O)N[C@H]2CC[C@@H](Oc3ccc4nnc(N5CCCCC56CC6)n4c3)c3ccccc32)c1 [Example 148, 1-{(1S,4R)-4-[3-(4-Aza-spiro[2.5]oct-4-yl)-[1,2,4]triazolo[4,3-a]pyridin-6-yloxy]-1,2,3,4-tetrahydro-naphthalen-1-yl}-3-{5-tert-butyl-2-[3-(2-dimethylamino-ethoxy)-phenyl]-2H-pyrazol-3-yl}-urea formate salt]
< 10 | C[C@H]1CCCCN1c1nnc2ccc(O[C@@H]3CC[C@H](NC(=O)Nc4cc(C(C)(C)C)nn4-c4cccc(CN5CCC(F)CC5)c4)c4ccccc43)cn12 [Example 169, 1-{5-tert-Butyl-2-[3-(4-fluoro-piperidin-1-ylmethyl)-phenyl]-2H-pyrazol-3-yl}-3-{(1S,4R)-4-[3-((S)-2-methyl-piperidin-1-yl)-[1,2,4]triazolo[4,3-a]pyridin-6-yloxy]-1,2,3,4-tetrahydro-naphthalen-1-yl}-urea formate salt]
< 10 | Cc1ccc(-n2nc(C(C)(C)C)cc2NC(=O)N[C@H]2CC[C@@H](Oc3ccc4nnc(CN5CCN(C)C(CO)C5)n4c3)c3ccccc32)cc1 (stereo partly drawn) [Example 56, 1-(5-tert-Butyl-2-p-tolyl-2H-pyrazol-3-yl)-3-{(1S,4R)-4-[3-(3-hydroxymethyl-4-methyl-piperazin-1-ylmethyl)-[1,2,4]triazolo[4,3-a]pyridin-6-yloxy]-1,2,3,4-tetrahydro-naphthalen-1-yl}-urea]
< 10 | COC1CCN(Cc2cccc(-n3nc(C(C)(C)C)cc3NC(=O)N[C@H]3CC[C@@H](Oc4ccc5nnc(N6CCCC[C@@H]6C)n5c4)c4ccccc43)c2)CC1 [Example 167, 1-{5-tert-Butyl-2-[3-(4-methoxy-piperidin-1-ylmethyl)-phenyl]-2H-pyrazol-3-yl}-3-{(1S,4R)-4-[3-((S)-2-methyl-piperidin-1-yl)-[1,2,4]triazolo[4,3-a]pyridin-6-yloxy]-1,2,3,4-tetrahydro-naphthalen-1-yl}-urea formate salt]
< 10 | C[C@H]1CCCCN1c1nnc2ccc(O[C@@H]3CC[C@H](NC(=O)Nc4cc(C(C)(C)C)nn4-c4cccc(CN(C)C)c4)c4ccccc43)cn12 [Example 170, 1-[5-tert-Butyl-2-(3-dimethylaminomethyl-phenyl)-2H-pyrazol-3-yl]-3-{(1S,4R)-4-[3-((S)-2-methyl-piperidin-1-yl)-[1,2,4]triazolo[4,3-a]pyridin-6-yloxy]-1,2,3,4-tetrahydro-naphthalen-1-yl}-urea formate salt]
< 10 | C[C@H]1CCCCN1c1nnc2ccc(O[C@@H]3CC[C@H](NC(=O)Nc4cc(C(C)(C)C)nn4-c4ccc(CN5CCC(F)CC5)cc4)c4ccccc43)cn12 [Example 183, 1-{5-tert-Butyl-2-[4-(4-fluoro-piperidin-1-ylmethyl)-phenyl]-2H-pyrazol-3-yl}-3-{(1S,4R)-4-[3-((S)-2-methyl-piperidin-1-yl)-[1,2,4]triazolo[4,3-a]pyridin-6-yloxy]-1,2,3,4-tetrahydro-naphthalen-1-yl}-urea formate salt]
